Reference: patent EP1984014B1, “USE OF TPO PEPTIDE COMPOUNDS AND PHARMACEUTICAL COMPOSITIONS IN THE TREATMENT OF ANEMIA” (Janssen Pharmaceutica NV, priority 2006, dated 2007)

Tests used:
[1] = test system: carboplatin-treated mice; assay: Example 4: lower doses (30, 100, 300ug/kg) as survival factor for erythrocyte lineages in carboplatin-treated mice; format: in vivo, BALB/c mouse; conditions: carboplatin alone; by Day 12
Method: (§1) The effects of PEGylated TPO Compound No. 1 on mice treated with carboplatin were observed. For all examples herein, a 10 mg/ml stock solution of PEGylated TPO Compound No. 1 was prepared in sterile saline. For mixing, the preparation was placed on a gyratory shaker for 15min. at 200 rpm. This method was used to dissolve PEGylated TPO Compound No. 1 without foaming. The stock was filtered using a GV Millex (0.22um) filter. Dosing solutions were then prepared from this stock using sterile saline. The stock and dosing solutions were prepared fresh on the day of use.
The ability of PEGylated TPO Compound No. 1 to function as a survival factor for megakaryocyte and erythrocyte lineages in carboplatin-treated mice as determined by changes in hematological parameters was observed. […] In this study, the effect of lower doses of PEGylated TPO Compound No. 1 (i.e., 30, 100 and 300ug/kg) on the survival of erythrocyte lineages was examined to characterize the dose-response for this effect.
(§2) The groups of mice were treated with either carboplatin or vehicle (Phosphate Buffered Saline, PBS) by ip administration on Days -1 and 0 as delineated below. The optimal dose of carboplatin used to induce thrombocytopenia in the BALB/c mouse strain was previously determined to be a fractionated total dose of 120mg/kg given as two consecutive daily injections (i.e., 2x60mg/kg). Approximately one hour following the second dose of carboplatin, groups of mice were treated with PEGylated TPO Compound No. 1 or vehicle (sterile saline, SS, preservative-free 0.9% sodium chloride) by IV (bolus) injection as delineated in Table 4. The dose was administered on a per-weight basis (100ul/10g body weight).
(§3) On Days 6, 8 and 12, five mice in each test group were weighed and then euthanised using CO2-asphyxiation and exsanguinations via cardiac puncture. The blood samples were transferred to separate EDTA (lavender-top) microcontainers for hematologic evaluation. Groups of control mice (5) were processed on Days 6 & 12.

[2] = test system: mice treated with two rounds of carboplatin; assay: Example 5: two rounds of high-dose carboplatin, hematocrit and survival of mice; format: in vivo; conditions: of the mice not utilized for hematological evaluation; carboplatin alone versus combination therapy
Method: as §1
Groups of mice were treated with two rounds of the chemotherapeutic agent (carboplatin) ten days apart, with each round consisting of two consecutive days of carboplatin (i.e., 70 mg/kg/day administered on Days -1 & 0 and Days 10 & 11) as delineated below. The dose of carboplatin utilized for these survival studies exceeded the maximal tolerated dose for mice (i.e., 120 mg/kg; administered as 60 mg/kg/day on 2 consecutive days). One hour following the second dose of carboplatin in each round (i.e., Day 0 and 11) mice were treated with PEGylated TPO Compound No. 1 (100ug/kg) or vehicle (sterile saline, SS, preservative-free 0.9% sodium chloride) by IV (bolus) injection as delineated below. The dose was administered on a per weight basis (100 ul/10g body weight). […]

[3] = test system: mice treated with carboplatin; assay: Example 2: dosing seven days before and/or 1 hour after carboplatin, hematological parameters in mice; format: in vivo, BALB/c mouse; conditions: carboplatin alone
Method: as §1
The possibility that PEGylated TPO Compound No. 1 may sensitize bone marrow hematopoietic stem cells of mice to the toxic effects of carboplatin treatment was examined. For this study, a dose of PEGylated TPO Compound No. 1 was administered to the mice seven days prior to the carboplatin dose or immediately after carboplatin treatment. An additional group was treated with PEGylated TPO Compound No. 1 both prior to and after carboplatin administration. The effect of these dosing regimens on hematological parameters was also observed.
The groups of mice were treated with either carboplatin or vehicle (Phosphate Buffered Saline, PBS) by ip administration on Days 7 and 8 as delineated below. The optimal dose of carboplatin used to induce thrombocytopenia in the BALB/c mouse strain was previously determined to be a fractionated total dose of 120mg/kg given as two consecutive daily injections (i.e., 2x60mg/kg). Seven days prior to the first carboplatin dose or one (1) hour after the second dose of carboplatin, groups of mice were treated with PEGylated TPO Compound No. 1 (300ug/kg) or vehicle (sterile saline, SS, preservative-free 0.9% sodium chloride) by IV (bolus) injection as delineated in Table 2. An additional group was treated with PEGylated TPO Compound No. 1 both before (Day 0) and after (Day 8, t=1h) the carboplatin dose. All dosing was performed on a per-weight basis (100ul/10g body weight).
as §3, with “14, 18, 22” for “6, 8”, “26,” for “12,”, “exsanguination” for “exsanguinations”, “hematological” for “hematologic”, “14 and 26. The data are presented graphically as group means + SEM.” for “6 & 12.”

[4] = test system: mice treated with carboplatin; assay: Example 3: dosing 1 hour, 1 day or 4 days after carboplatin, anemia in mice; format: in vivo, BALB/c mouse; conditions: carboplatin alone; surviving mice (2 mice) by Day 12 compared to control groups
Method: as §1
The effect of PEGylated TPO Compound No. 1 on the duration and severity of anemia following dosing regimens in which PEGylated TPO Compound No. 1 is administered at various times following the carboplatin treatment was observed. For this study, an amount of PEGylated TPO Compound No. 1 was administered to mice, one (1) hour, one (1) day or four (4) days following a carboplatin dose.
The groups of mice were treated with either carboplatin or vehicle (Phosphate Buffered Saline, PBS) by ip administration on Days -1 and 0 as delineated below. The optimal dose of carboplatin used to induce thrombocytopenia in the BALB/c mouse strain was previously determined to be a fractionated total dose of 120mg/kg given as two consecutive daily injections (i.e., 2x60mg/kg). One hour (Day 0), one day (Day 1) or four days (Day 4) following the second dose of carboplatin, groups of mice were treated with PEGylated TPO Compound No. 1 (300ug/kg) or vehicle (sterile saline, SS, preservative-free 0.9% sodium chloride) by IV (bolus) injection as delineated in Table 3. The dose was administered on a per-weight basis (100ul/10g body weight).
as §3, with “8, 10 &” for “8 and”, “hematological” for “hematologic”, “12. The data are presented graphically as group means + SEM.” for “12.”

[5] = test system: mice treated with carboplatin; assay: Example 1: dose response of PEGylated TPO Compound No. 1 given one day after carboplatin, anemia in mice; format: in vivo, BALB/c mouse; conditions: carboplatin alone 2x60mg/kg ip; by Day 11
Method: as §1
The effect of PEGylated TPO Compound No. 1 on the duration and severity of anemia following treatment of mice with carboplatin as determined by changes in hemoglobin levels, red blood cell count and hematocrit, was observed. For this study, increasing amounts of PEGylated TPO Compound No. 1 were administered to mice one day following a carboplatin dose to characterize a possible dose-dependent effect on various red blood cell parameters.
as §2, with “intraperitoneal” for “ip”, “Days -2 and” for “Days”, “-1” for “-1 and 0”, “One day” for “Approximately one hour”, “1.” for “4.”
as §3, with “5, 7, 9” for “6, 8”, “11,” for “12,”, “5 and 11. The data are presented graphically as group means +SEM.” for “6 & 12.”

N.N.O=C([O-])C1(C(=O)[O-])CCC1.[Pt+2] [carboplatin]
decrease in hemoglobin levels [1]: greater than 25%
mice that died between days 4 and 18 [2]: 7
lost body weight (average) ([3]; between Days 7 and 26): approximately 4%
decreases in hemoglobin levels, RBC counts and hematocrits ([3]; by Days 18 and 22 compared to control groups): approx. 18%
decreases in hemoglobin levels, RBC counts and hematocrits [4]: approx. 47%
decrease in hemoglobin levels [5]: ~20%
